# Data reported in ChEMBL document CHEMBL1671696, “Deamplification of pfmdr1-containing amplicon on chromosome 5 in Plasmodium falciparum is associated with reduced resistance to artelinic acid in vitro” (Antimicrob Agents Chemother, 2010).
# Tests used:
# [1] = test system: Plasmodium falciparum; experiment: Ratio of IC90 for Plasmodium falciparum subclone 3C10 containing 2 copy number of pfmdr1-containing amplicon on chromosome 5 to IC90 for wild type Plasmodium falciparum W2; type: functional
# [2] = test system: Plasmodium falciparum; experiment: Ratio of IC50 for Plasmodium falciparum subclone 3A8 containing 3 copy number of pfmdr1-containing amplicon on chromosome 5 to IC50 for wild type Plasmodium falciparum W2; type: functional
# [3] = test system: Plasmodium falciparum; experiment: Ratio of IC90 for Plasmodium falciparum subclone 3A3 containing 1 copy number of pfmdr1-containing amplicon on chromosome 5 to IC90 for wild type Plasmodium falciparum W2; type: functional
# [4] = test system: Plasmodium falciparum; experiment: Antimicrobial activity against Plasmodium falciparum subclone 3A3 containing 1 copy number of pfmdr1-containing amplicon on chromosome 5 assessed as growth inhibition by [3H]hypoxanthine incorporation assay; type: functional, organism-based
# [5] = test system: Plasmodium falciparum; experiment: Antimicrobial activity against Plasmodium falciparum subclone 3A1 containing 1 copy number of pfmdr1-containing amplicon on chromosome 5 assessed as growth inhibition by [3H]hypoxanthine incorporation assay; type: functional, organism-based
# [6] = test system: Plasmodium falciparum; experiment: Ratio of IC90 for Plasmodium falciparum subclone 3A1 containing 1 copy number of pfmdr1-containing amplicon on chromosome 5 to IC90 for wild type Plasmodium falciparum W2; type: functional
# [7] = test system: Plasmodium falciparum; experiment: Antimicrobial activity against Plasmodium falciparum subclone 3C1 containing 3 copy number of pfmdr1-containing amplicon on chromosome 5 assessed as growth inhibition by [3H]hypoxanthine incorporation assay; type: functional, organism-based
# [8] = test system: Plasmodium falciparum; experiment: Ratio of IC50 for Plasmodium falciparum subclone 3A3 containing 1 copy number of pfmdr1-containing amplicon on chromosome 5 to IC50 for wild type Plasmodium falciparum W2; type: functional
# [9] = test system: Plasmodium falciparum; experiment: Antimicrobial activity against compound-sensitive Plasmodium falciparum clone W2 assessed as growth inhibition by [3H]hypoxanthine incorporation assay; type: functional, organism-based
# [10] = test system: Plasmodium falciparum; experiment: Antimicrobial activity against Plasmodium falciparum subclone 3A12 containing 2 copy number of pfmdr1-containing amplicon on chromosome 5 assessed as growth inhibition by [3H]hypoxanthine incorporation assay; type: functional, organism-based
# [11] = test system: Plasmodium falciparum; experiment: Ratio of IC50 for Plasmodium falciparum subclone 3C20 containing 2 copy number of pfmdr1-containing amplicon on chromosome 5 to IC50 for wild type Plasmodium falciparum W2; type: functional
# [12] = test system: Plasmodium falciparum; experiment: Ratio of IC50 for Plasmodium falciparum subclone 3C1 containing 3 copy number of pfmdr1-containing amplicon on chromosome 5 to IC50 for wild type Plasmodium falciparum W2; type: functional
# [13] = test system: Plasmodium falciparum; experiment: Ratio of IC50 for Plasmodium falciparum subclone 3A26 containing 3 copy number of pfmdr1-containing amplicon on chromosome 5 to IC50 for wild type Plasmodium falciparum W2; type: functional
# [14] = test system: Plasmodium falciparum; experiment: Antimicrobial activity against Plasmodium falciparum subclone 3A17 containing 2 copy number of pfmdr1-containing amplicon on chromosome 5 assessed as growth inhibition by [3H]hypoxanthine incorporation assay; type: functional, organism-based
# [15] = test system: Plasmodium falciparum; experiment: Ratio of IC90 for Plasmodium falciparum clone W2AL80 containing 3 copy number of pfmdr1-containing amplicon on chromosome 5 to IC90 for wild type Plasmodium falciparum W2; type: functional
# [16] = test system: Plasmodium falciparum; experiment: Ratio of IC90 for Plasmodium falciparum subclone 3A12 containing 2 copy number of pfmdr1-containing amplicon on chromosome 5 to IC90 for wild type Plasmodium falciparum W2; type: functional
# [17] = test system: Plasmodium falciparum; experiment: Ratio of IC50 for Plasmodium falciparum subclone 3A12 containing 2 copy number of pfmdr1-containing amplicon on chromosome 5 to IC50 for wild type Plasmodium falciparum W2; type: functional
# [18] = test system: Plasmodium falciparum; experiment: Antimicrobial activity against Plasmodium falciparum subclone 3A26 containing 3 copy number of pfmdr1-containing amplicon on chromosome 5 assessed as growth inhibition by [3H]hypoxanthine incorporation assay; type: functional, organism-based
# [19] = test system: Plasmodium falciparum; experiment: Antimicrobial activity against Plasmodium falciparum subclone 3C18 containing 3 copy number of pfmdr1-containing amplicon on chromosome 5 assessed as growth inhibition by [3H]hypoxanthine incorporation assay; type: functional, organism-based
# [20] = test system: Plasmodium falciparum; experiment: Antimicrobial activity against drug pre-treated Plasmodium falciparum clone W2AL80 containing 3 copy number of pfmdr1-containing amplicon on chromosome 5 assessed as growth inhibition by [3H]hypoxanthine incorporation assay; type: functional, organism-based
# [21] = test system: Plasmodium falciparum; experiment: Ratio of IC50 for Plasmodium falciparum subclone 3C18 containing 3 copy number of pfmdr1-containing amplicon on chromosome 5 to IC50 for wild type Plasmodium falciparum W2; type: functional
# [22] = test system: Plasmodium falciparum; experiment: Ratio of IC90 for Plasmodium falciparum subclone 3A26 containing 3 copy number of pfmdr1-containing amplicon on chromosome 5 to IC90 for wild type Plasmodium falciparum W2; type: functional
# [23] = test system: Plasmodium falciparum; experiment: Ratio of IC90 for Plasmodium falciparum subclone 3C18 containing 3 copy number of pfmdr1-containing amplicon on chromosome 5 to IC90 for wild type Plasmodium falciparum W2; type: functional
# [24] = test system: Plasmodium falciparum; experiment: Ratio of IC90 for Plasmodium falciparum subclone 3A8 containing 3 copy number of pfmdr1-containing amplicon on chromosome 5 to IC90 for wild type Plasmodium falciparum W2; type: functional
# [25] = test system: Plasmodium falciparum; experiment: Ratio of IC90 for Plasmodium falciparum subclone 3C1 containing 3 copy number of pfmdr1-containing amplicon on chromosome 5 to IC90 for wild type Plasmodium falciparum W2; type: functional
# [26] = test system: Plasmodium falciparum; experiment: Ratio of IC50 for Plasmodium falciparum subclone 3C10 containing 2 copy number of pfmdr1-containing amplicon on chromosome 5 to IC50 for wild type Plasmodium falciparum W2; type: functional
# [27] = test system: Plasmodium falciparum; experiment: Ratio of IC50 for Plasmodium falciparum subclone 3A17 containing 2 copy number of pfmdr1-containing amplicon on chromosome 5 to IC50 for wild type Plasmodium falciparum W2; type: functional
# [28] = test system: Plasmodium falciparum; experiment: Ratio of IC50 for Plasmodium falciparum subclone 3A7 containing 4 copy number of pfmdr1-containing amplicon on chromosome 5 to IC50 for wild type Plasmodium falciparum W2; type: functional
# [29] = test system: Plasmodium falciparum; experiment: Antimicrobial activity against Plasmodium falciparum subclone 3C20 containing 2 copy number of pfmdr1-containing amplicon on chromosome 5 assessed as growth inhibition by [3H]hypoxanthine incorporation assay; type: functional, organism-based
# [30] = test system: Plasmodium falciparum; experiment: Antimicrobial activity against Plasmodium falciparum subclone 3A8 containing 3 copy number of pfmdr1-containing amplicon on chromosome 5 assessed as growth inhibition by [3H]hypoxanthine incorporation assay; type: functional, organism-based
# [31] = test system: Plasmodium falciparum; experiment: Ratio of IC90 for Plasmodium falciparum subclone 3A7 containing 4 copy number of pfmdr1-containing amplicon on chromosome 5 to IC90 for wild type Plasmodium falciparum W2; type: functional
# [32] = test system: Plasmodium falciparum; experiment: Ratio of IC90 for Plasmodium falciparum subclone 3A17 containing 2 copy number of pfmdr1-containing amplicon on chromosome 5 to IC90 for wild type Plasmodium falciparum W2; type: functional
# [33] = test system: Plasmodium falciparum; experiment: Antimicrobial activity against Plasmodium falciparum subclone 3C10 containing 2 copy number of pfmdr1-containing amplicon on chromosome 5 assessed as growth inhibition by [3H]hypoxanthine incorporation assay; type: functional, organism-based
# [34] = test system: Plasmodium falciparum; experiment: Ratio of IC50 for Plasmodium falciparum clone W2AL80 containing 3 copy number of pfmdr1-containing amplicon on chromosome 5 to IC50 for wild type Plasmodium falciparum W2; type: functional
# [35] = test system: Plasmodium falciparum; experiment: Antimicrobial activity against Plasmodium falciparum subclone 3A7 containing 4 copy number of pfmdr1-containing amplicon on chromosome 5 assessed as growth inhibition by [3H]hypoxanthine incorporation assay; type: functional, organism-based
# [36] = test system: Plasmodium falciparum; experiment: Ratio of IC50 for Plasmodium falciparum subclone 3A1 containing 1 copy number of pfmdr1-containing amplicon on chromosome 5 to IC50 for wild type Plasmodium falciparum W2; type: functional
# [37] = test system: Plasmodium falciparum; experiment: Ratio of IC90 for Plasmodium falciparum subclone 3C20 containing 2 copy number of pfmdr1-containing amplicon on chromosome 5 to IC90 for wild type Plasmodium falciparum W2; type: functional
compound,measurement,setting,value
C[C@@H]1[C@H](OCc2ccc(C(=O)O)cc2)O[C@@H]2O[C@@]3(C)CC[C@@H]4[C@@H](C)CC[C@@H]1[C@]24OO3 [ARTELINIC ACID],Ratio,[1],17.2
same,Ratio IC50,[2],16.3
same,Ratio,[3],9.3
same,IC50,[4],0.034 mg/L
same,IC90,[4],0.0504 mg/L
same,IC50,[5],0.0294 mg/L
same,IC90,[5],0.0531 mg/L
same,Ratio,[6],9.8
same,IC50,[7],0.0731 mg/L
same,IC90,[7],0.1 mg/L
same,Ratio IC50,[8],8.8
same,IC50,[9],0.00386 mg/L
same,IC90,[9],0.00544 mg/L
same,IC50,[10],0.0423 mg/L
same,IC90,[10],0.114 mg/L
same,Ratio IC50,[11],11
same,Ratio IC50,[12],18.9
same,Ratio IC50,[13],13.5
same,IC50,[14],0.0481 mg/L
same,IC90,[14],0.0867 mg/L
same,Ratio,[15],22.7
same,Ratio,[16],20.9
same,Ratio IC50,[17],11
same,IC50,[18],0.052 mg/L
same,IC90,[18],0.113 mg/L
same,IC50,[19],0.0814 mg/L
same,IC90,[19],0.111 mg/L
same,IC50,[20],0.0488 mg/L
same,IC90,[20],0.123 mg/L
same,Ratio IC50,[21],21.1
same,Ratio,[22],20.7
same,Ratio,[23],20.4
same,Ratio,[24],22
same,Ratio,[25],18.5
same,Ratio IC50,[26],10.2
same,Ratio IC50,[27],12.5
same,Ratio IC50,[28],12.1
same,IC50,[29],0.0424 mg/L
same,IC90,[29],0.08 mg/L
same,IC50,[30],0.0629 mg/L
same,IC90,[30],0.12 mg/L
same,Ratio,[31],17
same,Ratio,[32],15.9
same,IC50,[33],0.0395 mg/L
same,IC90,[33],0.0936 mg/L
same,Ratio IC50,[34],12.7
same,IC50,[35],0.0467 mg/L
same,IC90,[35],0.0924 mg/L
same,Ratio IC50,[36],7.6
same,Ratio,[37],14.7
OC(c1cc(C(F)(F)F)nc2c(C(F)(F)F)cccc12)C1CCCCN1 (stereo unspecified) [MEFLOQUINE],Ratio,[1],5.9
same,Ratio IC50,[2],2.6
same,Ratio,[3],2.8
same,IC90,[4],0.0406 mg/L
same,IC50,[5],0.00738 mg/L
same,IC90,[5],0.0261 mg/L
same,Ratio,[6],1.8
same,IC90,[7],0.0849 mg/L
same,Ratio IC50,[8],1.7
same,IC50,[9],0.00772 mg/L
same,IC90,[9],0.0145 mg/L
same,IC90,[10],0.0519 mg/L
same,Ratio IC50,[11],2.2
same,Ratio IC50,[12],3.1
same,Ratio IC50,[13],2.5
same,IC50,[14],0.019 mg/L
same,IC90,[14],0.0954 mg/L
same,Ratio,[15],7.2
same,Ratio,[16],3.6
same,Ratio IC50,[17],1.7
same,IC50,[18],0.0191 mg/L
same,IC90,[18],0.075 mg/L
same,IC90,[19],0.102 mg/L
same,IC90,[20],0.104 mg/L
same,Ratio IC50,[21],2.9
same,Ratio,[22],5.2
same,Ratio,[23],7
same,Ratio,[24],5.2
same,Ratio,[25],5.9
same,Ratio IC50,[26],3
same,Ratio IC50,[27],2.6
same,Ratio IC50,[28],3.8
same,IC90,[29],0.0833 mg/L
same,IC90,[30],0.0756 mg/L
same,Ratio,[31],5.4
same,Ratio,[32],6.6
same,IC90,[33],0.0821 mg/L
same,Ratio IC50,[34],2.3
same,IC90,[35],0.0778 mg/L
same,Ratio IC50,[36],1
same,Ratio,[37],5.7
